Results from ChEMBL document CHEMBL1148021, “(Arylpiperazinyl)cyclohexylsufonamides: discovery of alpha(1a/1d)-selective adrenergic receptor antagonists for the treatment of Benign Prostatic Hyperplasia/Lower Urinary Tract Symptoms (BPH/LUTS)” (Bioorg Med Chem Lett, 2007).

Columns and labels:
D(2) dopamine receptor = D(2) dopamine receptor (Homo sapiens, UniProt P14416); test: Binding affinity to human dopamine D2 receptor
[1] = target: T1, Alpha-1D adrenergic receptor (Homo sapiens, UniProt P25100); test: Binding affinity to human cloned adrenergic Alpha-1D receptor
T1 sequence (P25100 whole entry): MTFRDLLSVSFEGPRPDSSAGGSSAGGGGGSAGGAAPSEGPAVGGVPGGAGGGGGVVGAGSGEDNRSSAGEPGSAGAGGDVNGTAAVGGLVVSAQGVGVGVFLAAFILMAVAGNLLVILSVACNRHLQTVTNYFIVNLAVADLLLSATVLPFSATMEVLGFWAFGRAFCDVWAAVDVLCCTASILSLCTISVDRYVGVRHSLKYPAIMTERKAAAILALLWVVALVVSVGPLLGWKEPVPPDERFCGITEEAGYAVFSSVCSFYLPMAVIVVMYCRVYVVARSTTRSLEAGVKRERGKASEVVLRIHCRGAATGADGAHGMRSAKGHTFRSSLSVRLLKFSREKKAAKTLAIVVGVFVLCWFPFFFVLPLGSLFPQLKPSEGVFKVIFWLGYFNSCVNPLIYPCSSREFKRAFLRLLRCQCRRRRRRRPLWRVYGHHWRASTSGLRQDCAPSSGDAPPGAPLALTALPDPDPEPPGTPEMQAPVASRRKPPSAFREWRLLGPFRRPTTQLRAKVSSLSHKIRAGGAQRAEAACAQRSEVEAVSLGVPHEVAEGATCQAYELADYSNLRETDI

[2] = target: T2, Alpha-1A adrenergic receptor (Homo sapiens, UniProt P35348); test: Binding affinity to human cloned adrenergic alpha-1A receptor
T2 sequence (P35348 whole entry): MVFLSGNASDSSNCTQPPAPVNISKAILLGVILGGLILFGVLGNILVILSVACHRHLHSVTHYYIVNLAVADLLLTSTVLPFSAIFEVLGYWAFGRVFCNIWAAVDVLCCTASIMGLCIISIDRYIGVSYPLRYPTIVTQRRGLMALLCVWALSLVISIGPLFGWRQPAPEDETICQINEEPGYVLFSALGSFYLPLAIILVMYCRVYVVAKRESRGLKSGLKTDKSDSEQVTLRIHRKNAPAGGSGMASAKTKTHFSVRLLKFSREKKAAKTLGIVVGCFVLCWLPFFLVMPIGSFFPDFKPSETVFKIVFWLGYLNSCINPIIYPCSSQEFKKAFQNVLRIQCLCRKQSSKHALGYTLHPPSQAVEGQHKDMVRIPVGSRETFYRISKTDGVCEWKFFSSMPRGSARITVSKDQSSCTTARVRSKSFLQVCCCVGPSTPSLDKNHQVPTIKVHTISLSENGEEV

[3] = target: T3, Alpha-1B adrenergic receptor (Homo sapiens, UniProt P35368); test: Binding affinity to human cloned adrenergic alpha-1B receptor
T3 sequence (P35368 whole entry): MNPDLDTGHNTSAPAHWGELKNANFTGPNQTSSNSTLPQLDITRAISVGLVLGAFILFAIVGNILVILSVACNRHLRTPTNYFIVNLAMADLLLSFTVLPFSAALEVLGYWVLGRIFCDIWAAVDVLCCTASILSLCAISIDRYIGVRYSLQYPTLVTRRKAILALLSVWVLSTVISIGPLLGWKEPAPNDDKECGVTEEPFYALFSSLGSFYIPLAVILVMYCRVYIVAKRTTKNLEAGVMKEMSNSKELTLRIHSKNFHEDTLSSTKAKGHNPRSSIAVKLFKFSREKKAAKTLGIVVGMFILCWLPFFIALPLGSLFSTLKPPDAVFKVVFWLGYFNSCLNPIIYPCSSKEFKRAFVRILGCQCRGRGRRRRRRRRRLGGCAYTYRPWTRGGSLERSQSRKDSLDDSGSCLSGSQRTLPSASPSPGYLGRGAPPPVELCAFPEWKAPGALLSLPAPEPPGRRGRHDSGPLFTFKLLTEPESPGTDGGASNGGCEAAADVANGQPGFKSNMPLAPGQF

Sequence of D(2) dopamine receptor (P14416 whole entry): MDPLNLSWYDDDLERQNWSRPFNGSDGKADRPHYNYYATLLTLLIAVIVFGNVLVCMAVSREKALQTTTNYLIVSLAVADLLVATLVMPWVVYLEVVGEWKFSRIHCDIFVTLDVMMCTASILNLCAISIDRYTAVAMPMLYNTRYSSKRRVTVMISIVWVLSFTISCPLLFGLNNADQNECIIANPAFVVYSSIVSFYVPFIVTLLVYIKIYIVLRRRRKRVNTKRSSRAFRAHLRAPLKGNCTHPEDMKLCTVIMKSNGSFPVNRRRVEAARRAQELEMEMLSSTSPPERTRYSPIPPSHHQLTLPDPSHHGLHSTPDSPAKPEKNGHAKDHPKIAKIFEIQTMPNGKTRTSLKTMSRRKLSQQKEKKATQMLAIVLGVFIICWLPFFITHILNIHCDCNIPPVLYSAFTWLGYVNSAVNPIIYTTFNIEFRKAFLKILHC

Work on COc1ccc(C)cc1S(=O)(=O)N[C@H]1CC[C@@H](N2CCN(c3ccccc3OC(C)C)CC2)CC1 yielded a Ki (D(2) dopamine receptor) of 110 nM, a Ki [1] of 7 nM and a Ki [2] of 18 nM. The Ki [3] was 162 nM.
